From PubChem BioAssay AID330 (DTP/NCI, 2004)
“And” between values parts separate entries of the source, which are not always exact repeats. Equal entries are not always repeated. Inconclusive results and toxic doses are left out. How the source made its calls: active means survival T/C of 150% or more; inactive means T/C below 125% in these data.

Test system: P388 leukemia ip, CD2F1 mice, survival T/C
Assay: NCI In Vivo Anticancer Drug Screen. Data for tumor model P388 Leukemia (intraperitoneal) in CD2F1 (CDF1) mice
Conditions: endpoint: median survival time, higher = longer survival
How it was run: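 Mice carrying the transplanted tumor received test compound or vehicle. Survival was recorded in each group, and the value is the treated-group measurement divided by that of the vehicle-treated control group.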

[1] = dose: 50.0 mg/kg/injection, schedule: Q01DX005 (ip), vehicle: saline with Tween-80
[2] = dose: 100.0 mg/kg/injection, schedule: Q01DX005 (ip), vehicle: saline with Tween-80
[3] = dose: 200.0 mg/kg/injection, schedule: Q01DX005 (ip), vehicle: saline with Tween-80
[4] = dose: 60.0 mg/kg/injection, schedule: Q01DX005 (ip), vehicle: Klucel (hydroxypropylcellulose) (HPC)
[5] = dose: 120.0 mg/kg/injection, schedule: Q01DX005 (ip), vehicle: Klucel (hydroxypropylcellulose) (HPC)
[6] = dose: 240.0 mg/kg/injection, schedule: Q01DX005 (ip), vehicle: Klucel (hydroxypropylcellulose) (HPC)
[7] = dose: 50.0 mg/kg/injection, schedule: Q01DX009 (ip), vehicle: saline with Tween-80
[8] = dose: 100.0 mg/kg/injection, schedule: Q01DX009 (ip), vehicle: saline with Tween-80
[9] = dose: 200.0 mg/kg/injection, schedule: Q01DX009 (ip), vehicle: saline with Tween-80

Measured: T/C

CC1=NN(c2ccccc2)C(=O)/C1=C1\SS/C(=C2\C(=O)N(c3ccccc3)N=C2C)S1
inactive: dose: 12.5 mg/kg/injection, schedule: Q01DX009 (ip), vehicle: Klucel (hydroxypropylcellulose) (HPC) 100 % of control | dose: 25.0 mg/kg/injection, schedule: Q01DX009 (ip), vehicle: Klucel (hydroxypropylcellulose) (HPC) 103 % of control | dose: 50.0 mg/kg/injection, schedule: Q01DX009 (ip), vehicle: Klucel (hydroxypropylcellulose) (HPC) 121 % of control and 90 % of control | dose: 100.0 mg/kg/injection, schedule: Q01DX009 (ip), vehicle: Klucel (hydroxypropylcellulose) (HPC) 92 % of control and 94 % of control | dose: 200.0 mg/kg/injection, schedule: Q01DX009 (ip), vehicle: Klucel (hydroxypropylcellulose) (HPC) 102 % of control

c1cc2nc(c1)CSCc1cc3c(cc1CSCc1cccc(n1)CSC3)CSC2
inactive: dose: 50.0 mg/kg/injection, schedule: Q01DX009 (ip), vehicle: suspension in saline 102 % of control | dose: 100.0 mg/kg/injection, schedule: Q01DX009 (ip), vehicle: suspension in saline 94 % of control | dose: 200.0 mg/kg/injection, schedule: Q01DX009 (ip), vehicle: suspension in saline 86 % of control

CN(C)c1ccc(/C=C/c2cc[n+](C)cc2)cc1
inactive: dose: 2.0 mg/kg/injection, schedule: Q01DX009 (ip), vehicle: saline with Tween-80 110 % of control | dose: 2.0 mg/kg/injection, schedule: Q04DX003 (ip), vehicle: saline with Tween-80 91 % of control | dose: 4.0 mg/kg/injection, schedule: Q01DX009 (ip), vehicle: saline with Tween-80 100 % of control | dose: 4.0 mg/kg/injection, schedule: Q04DX003 (ip), vehicle: saline with Tween-80 100 % of control | dose: 8.0 mg/kg/injection, schedule: Q01DX009 (ip), vehicle: saline with Tween-80 100 % of control | dose: 8.0 mg/kg/injection, schedule: Q04DX003 (ip), vehicle: saline with Tween-80 108 % of control

CC(C)c1cc(/C=C2/OC(=O)c3ccccc32)cc(C(C)C)c1O
inactive: dose: 100.0 mg/kg/injection, schedule: Q04DX002 (ip), vehicle: saline 101 % of control | dose: 200.0 mg/kg/injection, schedule: Q04DX002 (ip), vehicle: saline 100 % of control | dose: 400.0 mg/kg/injection, schedule: Q04DX002 (ip), vehicle: saline 106 % of control

Cc1csc(NC(=S)N(C)C)n1
inactive: dose: 100.0 mg/kg/injection, schedule: Q04DX002 (ip), vehicle: saline with Tween-80 103 % of control | dose: 200.0 mg/kg/injection, schedule: Q04DX002 (ip), vehicle: saline with Tween-80 101 % of control | dose: 400.0 mg/kg/injection, schedule: Q04DX002 (ip), vehicle: saline with Tween-80 101 % of control

Cc1ccccc1NC(=O)OCC(CCl)(CCl)CCl
inactive: dose: 100.0 mg/kg/injection, schedule: Q04DX002 (ip), vehicle: Klucel (hydroxypropylcellulose) (HPC) 99 % of control | dose: 200.0 mg/kg/injection, schedule: Q04DX002 (ip), vehicle: Klucel (hydroxypropylcellulose) (HPC) 96 % of control | dose: 400.0 mg/kg/injection, schedule: Q04DX002 (ip), vehicle: Klucel (hydroxypropylcellulose) (HPC) 89 % of control

C[N+](C)([O-])CC1CC=CCC1C[N+](C)(C)[O-] (stereo not drawn)
inactive: dose: 25.0 mg/kg/injection, schedule: Q01DX005 (ip), vehicle: saline 99 % of control | dose: 50.0 mg/kg/injection, schedule: Q01DX005 (ip), vehicle: saline 106 % of control | dose: 100.0 mg/kg/injection, schedule: Q01DX005 (ip), vehicle: saline 91 % of control

CCCCN(CCCC)CNC(=O)c1ccccc1
inactive: [1] 97 % of control | [2] 100 % of control

CCCCCCCCCCCCn1cc[n+](CC(=O)N(O)Cc2ccccc2)c1C
inactive: dose: 1.56 mg/kg/injection, schedule: Q01DX005 (ip), vehicle: saline with Tween-80 93 % of control | dose: 3.12 mg/kg/injection, schedule: Q01DX005 (ip), vehicle: saline with Tween-80 90 % of control | dose: 6.25 mg/kg/injection, schedule: Q01DX005 (ip), vehicle: saline with Tween-80 86 % of control

Cc1ccc(S(=O)(=O)CC(O)(C(C)C)C(C)C)cc1
inactive: [1] 103 % of control | [2] 102 % of control | [3] 102 % of control

CCCCCCCCCCCC(=O)NCCc1ccc(O)c(O)c1
inactive: dose: 25.0 mg/kg/injection, schedule: Q04DX003 (ip), vehicle: Klucel (hydroxypropylcellulose) (HPC) 113 % of control | dose: 50.0 mg/kg/injection, schedule: Q04DX003 (ip), vehicle: Klucel (hydroxypropylcellulose) (HPC) 115 % of control | dose: 100.0 mg/kg/injection, schedule: Q04DX003 (ip), vehicle: Klucel (hydroxypropylcellulose) (HPC) 119 % of control and 120 % of control | dose: 200.0 mg/kg/injection, schedule: Q04DX003 (ip), vehicle: Klucel (hydroxypropylcellulose) (HPC) 113 % of control and 120 % of control | dose: 400.0 mg/kg/injection, schedule: Q04DX003 (ip), vehicle: Klucel (hydroxypropylcellulose) (HPC) 89 % of control

Oc1ccccc1C=NCCSSCCN=Cc1ccccc1O
inactive: [4] 106 % of control | [5] 101 % of control | [6] 108 % of control

CCSc1nc2ccc(NCn3nnc4ccccc43)cc2s1
inactive: [4] 98 % of control | [5] 89 % of control | [6] 90 % of control

O=C1OC(C2OC(=O)C(=O)C2C(=O)c2ccccc2Cl)C(C(=O)c2ccccc2Cl)C1=O (stereo not drawn)
inactive: dose: 15.0 mg/kg/injection, schedule: Q01DX005 (ip), vehicle: saline + Tween-80 + alcohol 99 % of control | dose: 30.0 mg/kg/injection, schedule: Q01DX005 (ip), vehicle: saline + Tween-80 + alcohol 91 % of control

CC(=O)OC[N+]1(C)CCCCC1
inactive: [7] 111 % of control | [8] 106 % of control | [9] 116 % of control

O=C1CCCC12CCCC2=O
inactive: [7] 103 % of control | [8] 100 % of control | [9] 109 % of control

O=C1C=C(NCCCC2CCCN3CCCCC23)C(=O)c2ccccc21 (stereo not drawn)
inactive: dose: 6.25 mg/kg/injection, schedule: Q01DX005 (ip), vehicle: Klucel (hydroxypropylcellulose) (HPC) 95 % of control | dose: 12.5 mg/kg/injection, schedule: Q01DX005 (ip), vehicle: Klucel (hydroxypropylcellulose) (HPC) 98 % of control | dose: 25.0 mg/kg/injection, schedule: Q01DX005 (ip), vehicle: Klucel (hydroxypropylcellulose) (HPC) 98 % of control

C[SiH](C)c1ccc(Cl)cc1
inactive: dose: 50.0 mg/kg/injection, schedule: Q01DX009 (ip), vehicle: saline 99 % of control | dose: 100.0 mg/kg/injection, schedule: Q01DX009 (ip), vehicle: saline 102 % of control | dose: 200.0 mg/kg/injection, schedule: Q01DX009 (ip), vehicle: saline 100 % of control

O=C1c2ccccc2C(=O)c2c(NCC3CO3)ccc(NCC3CO3)c21 (stereo not drawn)
inactive: dose: 0.75 mg/kg/injection, schedule: Q01DX005 (ip), vehicle: Klucel (hydroxypropylcellulose) (HPC) 112 % of control | dose: 1.5 mg/kg/injection, schedule: Q01DX005 (ip), vehicle: Klucel (hydroxypropylcellulose) (HPC) 112 % of control | dose: 3.0 mg/kg/injection, schedule: Q01DX005 (ip), vehicle: Klucel (hydroxypropylcellulose) (HPC) 114 % of control | dose: 6.0 mg/kg/injection, schedule: Q01DX005 (ip), vehicle: Klucel (hydroxypropylcellulose) (HPC) 114 % of control

CN1CCC(c2ccccc2)C(O)C1 (stereo not drawn)
inactive: dose: 60.0 mg/kg/injection, schedule: Q01DX005 (ip), vehicle: saline with Tween-80 106 % of control | dose: 120.0 mg/kg/injection, schedule: Q01DX005 (ip), vehicle: saline with Tween-80 105 % of control | dose: 240.0 mg/kg/injection, schedule: Q01DX005 (ip), vehicle: saline with Tween-80 103 % of control

COc1nc(N)nc2c1ncn2C1OC(CO)CC1O (stereo not drawn)
inactive: [1] 86 % of control | [2] 88 % of control | [3] 97 % of control

CS(=O)(=O)c1ccc(C[N+]23CN4CN(CN(C4)C2)C3)cc1
inactive: [4] 98 % of control | [5] 99 % of control | [6] 98 % of control

CCOP(=O)(O)C1CCCC(C)[N-]1.CCOP(=O)(O)C1CCCC(C)[N-]1.CCOP(=O)(O)C1CCCC(C)[N-]1.[Ti+3] (stereo not drawn)
inactive: dose: 50.0 mg/kg/injection, schedule: Q01DX001 (ip), vehicle: suspension in saline 94 % of control | dose: 100.0 mg/kg/injection, schedule: Q01DX001 (ip), vehicle: suspension in saline 99 % of control | dose: 200.0 mg/kg/injection, schedule: Q01DX001 (ip), vehicle: suspension in saline 88 % of control

CC(=O)CC(C)=NCC(C)N=C(C)CC(C)=O.c1cc[c]([Sn][c]2ccccc2)cc1 (stereo not drawn)
active: dose: 2.5 mg/kg/injection, schedule: Q01DX009 (ip), vehicle: saline 154 % of control | dose: 5.0 mg/kg/injection, schedule: Q01DX009 (ip), vehicle: saline 158 % of control and 162 % of control | dose: 10.0 mg/kg/injection, schedule: Q01DX009 (ip), vehicle: saline 185 % of control
